Results on 1 compound are retold here after EP1001774B1, “USE OF PHOSPHOLAMBAN INHIBITORS FOR INCREASING CORONARY FLOW” (ORION CORPORATION, priority 1997, dated 1999).

“Also recorded” adds a separate entry of the source.

For assay [1], the target named is T1, PLB[1-36 a.a.](Ser16PO3-, Thr17PO3-) (Homo sapiens, UniProt P26678).
T1 construct: (PLB [1-36 a.a.](Ser16PO3-, Thr17PO3-)); made in house; host or cells: chemical peptide synthesis (no expression host)
T1 sequence (P26678 1-36): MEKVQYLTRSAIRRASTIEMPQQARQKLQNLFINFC
As to the kind of experiment: Circular dichroism (CD) spectroscopy, binding to double phosphorylated phospholamban fragment. The note with it: 50 µM in water, Fig. 1. The method, then: (§1) Both the 36 amino acid N-terminal fragment of human phospholamban (PLB [1-36 a.a.]) and the 36 amino acid N-terminal fragment of double phosphorylated human phospholamban (PLB [1-36 a.a.](Ser16PO3-, Thr17PO3-)) were obtained by peptide synthesis. The peptides were purified by reverse phase HPLC, analysed for homogenity by mass spectrometry and were found pure at 97 %. The peptides were lyophilized and then resuspended in water at the final concentration of 0.1 mM, for CD analysis. The pH of both solutions was between 3 and 4 and was not further adjusted. Compound of Example 1c was solved in water at a final concentration of 0.1 mM. The pH was adjusted at 7.2 by adding 1 N NaOH.
(§2) Circular dichroism spectra were acquired at 24 °C on samples of 100 µl. The spectra were recorded on a Jasco J-720 spectropolarimeter using a 1 mm path-length quartz cuvette. The band width was 1 nm, the sensitivity 20 mdeg, the step resolution 0.5 nm, the response time 0.5 sec, and the scan speed 20 nm/min (from 250 to 190 nm). The spectra were expressed in [θ] x 10^-3 x degrees x cm^2 x dmol^-1.
On the technique in general: CD spectra are sensitive to the conformation of chiral molecules.

The test system of another assay is SR Ca^2+-ATPase. The assay is described as follows: Calcium uptake assay (fluo-3) in SR vesicles from fast skeletal muscle (psoas m.), which contain no phospholamban. It counts as biochemical, guinea-pig. The note with it: 50 and 100 µM; Figure 2B; three experiments per group. From the text:
(§3) The direct binding of a compound to the phospholamban protein can be ascertained by the circular dichroism (CD) spectroscopy. The methods for determining whether a compound relieves the inhibitory effect of phospholamban on SR Ca^2+-ATPase by direct binding to the phospholamban protein, i.e. is a phospholamban inhibitor, are illustrated in detail in the experimental section.
(§4) The effect on phospholamban of the compounds used in the invention was verified by measuring its effects on calcium uptake into the SR vesicles prepared from cardiac tissue and into vesicles prepared from fast skeletal muscle (psoas m.). […] The methods are described below in detail.
(§5) Guinea pigs (10-12) were decapited. Their hearts or the psoas muscles were excised, washed in ice-cold 0.9 % NaCl and cut into pieces in a buffer containing 20 mM Tris-maleate, 0.3 M sucrose, pH 7.0. Thereafter tissue pieces were homogenized with Polytron and further with Potter (10 strokes). The homogenate was centrifugated at 1000 g for 15 min at 4 °C. The supernatant was collected and the pellet was resuspended into 5 ml of the buffer (20 mM Tris-maleate, 0.3 M sucrose, pH 7.0) and recentrifugated at 1000 g for 10 min at 4 °C. The obtained supernatant was combined with the earlier collected supernatant and centrifugated once again at 10 000 g for 20 min at 4 °C. The final supernatant was filtered into a bottle equipped with a magnetic stirrer. KCl was added to the filtered supernatant to achieve the final concentration of 0.6 M (at 4 °C). The obtained solution was centrifugated at 100 000 g for 60 min at 4 °C. The pellet was suspended in 5 ml of the buffer containing 20 mM Tris-maleate, 0.3 M sucrose, pH 7.0 and centrifugated at 100 000 g for 60 min at 4 °C. The obtained pellet was suspended in 5 ml of buffer containing 20 mM Tris-maleate, 0.3 M sucrose, 0.1 M KCI, pH 7.0 and stored at -80 °C until use. The protein concentration was also measured in order to standardise the separately prepared vesicle preparations.
(§6) In the calcium uptake assay, the fluorescent indicator, fluo-3 was used to detect the decrease of the extravesicular Ca^2+-concentration, when the SR Ca^2+ATPase was transferring Ca^2+ from the extravesicular space into the SR-vesicles.
(§7) The SR-vesicles obtained above (50 µg protein/ml) were preincubated with or without the test compound at 37 °C for 5 min in the assay buffer containing 40 mM imidazole, 95 mM KCI, 5 mM NaN3, 5 mM MgCl2, 0.5 mM EGTA, 5 mM potassium oxalate, 2 µM ruthenium red, 5 µM fluo-3, pH 7.0. The free calcium was adjusted to 0.1 µM or to 0.04 µM by CaCl2. The reaction was initiated by adding ATP (5 mM). The final reaction volume was 1.5 ml. The fluorescence of reaction mixture was measured for 3 min by using the excitation and emission wavelengths of 510 nm and 530 nm, respectively.

The next assay has as its system coronary arteries. The assay is described as follows: Coronary flow in isolated paced heart (Langendorff, constant pressure). The note with it: 0.3 - 30 µM; six hearts paced at 250 beats/min; Figure 3A. Also noted: species or system guinea-pig. The method, then:
Guinea-pigs of either sex weighing 300-400 g were used in the study. After the guinea-pig was sacrificed by a blow on the skull and decapitated the heart was rapidly excised. The heart was then rinsed in cold oxygenated perfusion buffer. A cannula was inserted into the aorta and secured with a ligature. Retrograde perfusion began as soon as the heart was placed in a thermostatically controlled moist chamber of the Langendorff apparatus. Modified Tyrode solution (37 °C), equilibrated in a thermostatically controlled bulb oxygenator with carbogen (95 % O2 and 5% CO2) was used as a perfusion buffer. The composition of the Tyrode solution was (in mM): NaCl 135; MgCl2 x 6H2O 1; KCl 5; CaCl2 x 2H2O 2; NaHCO3 15; Na2HPO4 x 2H2O 1; glucose 10; pH 7.3-7.4. The experiments were carried out under constant pressure condition (50 mmHg). After a short prestabilization (10 min) a latex balloon (size 4) was carefully placed into the left ventricle through the left pulmonary vein and the left atrium. The latex balloon was attached to a stainless-steel cannula coupled with a pressure transducer. The latex balloon, the cannula and the chamber of the pressure transducer were filled with ethylene glycol / water (1:1) mixture avoiding any air-bubble. The isovolumetric left ventricular pressure was recorded through the pressure transducer. The maximal positive and negative derivatives of the left ventricular pressure were calculated by using the digitized pressure signals. At the beginning of the experiment, the volume of the balloon was adjusted to obtain a diastolic pressure of approximately 5 mmHg. Coronary flow (ml/min) was continuously recorded by an electromagnetic flow meter with a flow probe inserted above the aortic cannula. The heart was paced at 250 beats/min with a coaxial electrode localized on the surface of the right atrium. Before starting the experiment, the heart was allowed to stabilise further for 30 - 50 min with vehicle (0.1% DMSO) to reach a stable coronary flow.
After 15 min baseline recording various concentrations of the test compound of Example 1c were added to the perfusion buffer at 15 min intervals. The concentration range of 0.3 - 30 µM was tested. The vehicle concentration (0.1% DMSO) was kept constant throughout the experiment.

For a further assay, the target named is T2, PLB[1-36 a.a.] (Homo sapiens, UniProt P26678).
T2 construct: N-terminal fragment of human phospholamban (PLB [1-36 a.a.]); made in house; host or cells: chemical peptide synthesis (no expression host)
T2 sequence (P26678 1-36 limits assumed): T1 sequence (P26678 1-36)
The assay is described as follows: Circular dichroism (CD) spectroscopy, binding to the cytosolic part of phospholamban. The note with it: 50 µM in water, Fig. 1. The method, then:
as §1, §2

In assay [2] the test system is endothelial cells of the coronary vessels. As to the kind of experiment: Coronary flow in freely beating isolated heart with and without Triton x 100 destruction of endothelial cells. The arrangement: species or system guinea-pig. The note with it: 0.3 - 30 µM; Figures 4A and 4B. The method, then:
Substance P, an endothelial-dependent vasodilator, was used as a reference compound. Triton x 100 was used to destroy the endothelial cells of the coronary vessels.
The experiment was carried out under constant pressure condition (50 mmHg) on freely beating heart. Coronary flow (ml / min) was continuously recorded by an electromagnetic flow meter with a flow probe inserted above the aortic cannula.
After 15 min baseline recording a bolus dose of substance P (0.1 µM / 0.3 ml) was added to the perfusion buffer via a side branch of the aortic cannula (Figure 4B). The addition of substance P was repeated twice before the injection of triton x 100 (0.05% / 0.2 ml) was given via a needle inserted into the cannula just above the aorta. After 85 min of triton x 100 injection a control dose of substance P was added twice to the perfusion buffer in order to check if the endothelial cells has destroyed. Thereafter the concentration range of 0.3 - 30 µM of the compound of Example 1c was tested. The vehicle concentration (0.1% DMSO) was kept constant throughout the experiment. A control experiment is shown in Figure 4A where the effect of Example 1 c is seen at the same concentration range when the […] is not disrupted by Triton x 100.

The target of the next assay is T3, phospholamban (Cavia porcellus, UniProt A0A286XLC6).
T3 construct: calcium uptake into the SR vesicles prepared from cardiac tissue; from tissue; host or cells: guinea-pig heart (ventricular myocardium), SR vesicle preparation
T3 sequence (A0A286XLC6 1-52): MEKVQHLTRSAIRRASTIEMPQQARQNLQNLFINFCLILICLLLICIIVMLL
The assay is described as follows: Calcium uptake assay (fluo-3) in SR vesicles from cardiac tissue. It counts as biochemical, guinea-pig. The note with it: 50 and 100 µM; Figure 2A; three experiments per group.
Description: as §3, §4, §5, §6, §7

On to `Cc1c(Cc2ccccc2)c(=O)oc2cc(OCc3nnn[nH]3)cc(OCc3nnn[nH]3)c12` [Example 1c, 3-Benzyl-5,7-bis[(1H -tetrazol-5-yl)methoxy]-4-methyl-2H-1-benzopyran-2-one], for which the “interaction with PLB[1-36 a.a.](Ser16PO3-, Thr17PO3-) (CD spectra)” value in assay [1] is on record as “does not interact or interacts weakly with the phosphorylated phospholamban”. Also, the “Ca^2+ uptake rate into the fast skeletal muscle SR vesicles” value in the assay with SR Ca^2+-ATPase is on record as “did not change the calcium uptake”. Besides, in the assay on coronary arteries, the coronary flow entry is “increase in coronary flow”. Moreover, the “interaction with PLB[1-36 a.a.] (CD spectra)” value at PLB[1-36 a.a.] is “forms a complex with PLB at their N-terminal domain; also recorded: interacts with the cytosolic part of phospholamban PLB[1-36 a.a.]”. Further, the “mechanism of the vasodilatory effect (coronary flow with / without Triton x 100)” value in assay [2] was “due to an endothelial-mediated mechanism”. In addition, the “Ca^2+ uptake rate into the cardiac SR vesicles” value on phospholamban is “accelerated the calcium uptake into the cardiac SR vesicles”.
